Values after ≈ are worked out from the molar mass of the structure shown.
What was measured:
P. aeruginosa biofilms [1] = test: Biofilm Growth Assay with compound in half of the agar and antibiotic disks; assay type: cell-based; details: 0.125 μg/ml in agar with colistin 10 μg disks
Method: The Biofilm Growth Assay as described in Example VII was performed in round plates with the compounds of the invention in agar on half of the plate and antibiotic disks placed onto the agar containing the compounds of the invention.
The Biofilm Growth Assay was performed as described in Example VIII. 2 to 4 antibiotic disks were placed onto the agar containing a compound of the invention in a line parallel to the line that separates the two agars in one round plate. Appropriate negative and positive control plates were performed as known to those skilled in the art.

B. cepacia = test: Biofilm growth assay, Burkholderia cepacia; assay type: cell-based; details: Table 6, n = 10 isolates; M9 salts, 0.7% citrate, 0.4% Noble agar
Method: The biofilm growth assay was carried out to measure swarming or biofilm spreading on semi-solid agar media in round plates (for example, 100×15 mm), also referred to as Petri dishes. For E. coli, the plates contained LB medium with 0.6% agar and 0.5% glucose. P. aeruginosa plates were made with M8 agar supplemented with 0.2% glucose, 100 μM CaCl2, 1 mM MgSO4, and 0.5% Casamino acids. The agar plates of this assay consisted of 0.4% to 0.7% agar (Bacto or Noble agar), although other media may also be used as described in the literature and known to those skilled in the art. Test compounds at the desired concentration were added to the cooled, autoclaved media. Portions of the media were then poured into the plates (20 mL/plate), and the plates allowed to dry at room temperature for approximately 3 to 4 hours. Alternatively, however, plates may be dried in a laminar flow hood for approximately fifteen to twenty minutes. Overnight cultures were grown in a 37° C. shaker in LB (E. coli) or TSB (P. aeruginosa). Plates were inoculated by placing 5 μL of the appropriate overnight culture in the centers of the plates. The plates then were incubated overnight at 37° C. The area of the zone of spreading bacteria was then measured and replicates are averaged. Percent inhibition was calculated as 100×(area without compound−area with compound)/(area without compound). […] A > (“greater than” symbol) as used in Table 1 is well understood to those skilled in the art as an indication that the listed concentration was not effective at this concentration.
(§1) Table 6, below, lists the inhibitory concentrations of select compounds and antibiotics in the biofilm growth assay against various gram-negative bacterial biofilms. “N” means the number of isolates of bacteria tested. The biofilm growth assay procedure detailed in Example I, above, was followed. Burkholderia cepacia used media consisting of M9 salts, 100 μM CaCl2, 1 mM MgSO4, and 0.7% citrate in 0.4% Noble agar. Salmonella spp. used media consisting of Nutrient Broth with 0.5% glucose in 0.5% Noble agar.

P. aeruginosa biofilms [2] = test: Biofilm growth assay (spreading biofilm on semi-solid agar), P. aeruginosa; assay type: cell-based; design: P. aeruginosa (n = 10) inhibitory concentration in the biofilm growth assay: unit: ug/mL; details: for IC85: Pseudomonas aeruginosa, biofilm growth assay, vs negative controls, Tables 1-5, read-out: P. aeruginosa: concentration that reduces the area of the spreading biofilm by greater than or equal to 85%
How it was run: (§2)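 Values are compound concentrations (μg/ml) that cut the spreading-biofilm zone area by ≥85% relative to negative controls after overnight 37 °C growth from 5 μL central inoculum. E. coli plates: LB, 0.6% agar, 0.5% glucose; P. aeruginosa plates: M8 agar plus 0.2% glucose, 100 μM CaCl2, 1 mM MgSO4, 0.5% Casamino acids.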

[3] = test system: Pectobacterium atrosepticum; test: Biofilm growth assay, plant pathogen Pectobacterium atrosepticum; assay type: cell-based; details: M8 salts, 0.7% glucose, 0.5% Noble agar, 30° C., 24 to 48 hours
Salmonella spp. = test: Biofilm growth assay, Salmonella spp.; assay type: cell-based; details: Table 6, n = 6 isolates; Nutrient Broth, 0.5% glucose, 0.5% Noble agar
Method: The biofilm growth assay was carried out to measure swarming or biofilm spreading on semi-solid agar media in round plates (for example, 100×15 mm), also referred to as Petri dishes. For E. coli, the plates contained LB medium with 0.6% agar and 0.5% glucose. P. aeruginosa plates were made with M8 agar supplemented with 0.2% glucose, 100 μM CaCl2, 1 mM MgSO4, and 0.5% Casamino acids. The agar plates of this assay consisted of 0.4% to 0.7% agar (Bacto or Noble agar), although other media may also be used as described in the literature and known to those skilled in the art. Test compounds at the desired concentration were added to the cooled, autoclaved media. Portions of the media were then poured into the plates (20 mL/plate), and the plates allowed to dry at room temperature for approximately 3 to 4 hours. Alternatively, however, plates may be dried in a laminar flow hood for approximately fifteen to twenty minutes. Overnight cultures were grown in a 37° C. shaker in LB (E. coli) or TSB (P. aeruginosa). Plates were inoculated by placing 5 μL of the appropriate overnight culture in the centers of the plates. The plates then were incubated overnight at 37° C. The area of the zone of spreading bacteria was then measured and replicates are averaged. Percent inhibition was calculated as 100×(area without compound−area with compound)/(area without compound). An active compound was considered that which reduces the area of the spreading biofilm compared to negative controls by greater than or equal to 85%. The values shown in Table 1 are the concentrations of compounds (μg/ml) tested in the biofilm growth assay that reduce the area of the spreading biofilm compared to negative controls by greater than or equal to 85% unless noted differently in Table 1. A > (“greater than” symbol) as used in Table 1 is well understood to those skilled in the art as an indication that the listed concentration was not effective at this concentration.
as §1

Pseudomonas syringae = test: Biofilm growth assay, plant pathogen Pseudomonas syringae; assay type: cell-based; details: M8 salts, 0.7% glucose, 0.5% Noble agar, 30° C., 24 to 48 hours
cysB = details: as described in U.S. Pat. No. 7,604,978; cited from earlier work
Xanthomonas campestris = test: Biofilm growth assay, plant pathogen Xanthomonas campestris; assay type: cell-based; details: M8 salts, 0.7% glucose, 0.5% Noble agar, 30° C., 24 to 48 hours
E. coli biofilms = test: Biofilm growth assay (spreading biofilm on semi-solid agar), E. coli; assay type: cell-based; design: E. coli (n = 10) inhibitory concentration in the biofilm growth assay: unit: ug/mL; details: for IC85: Escherichia coli, biofilm growth assay, overnight 37° C., vs negative controls, Tables 1-5, read-out: E. coli: concentration that reduces the area of the spreading biofilm by greater than or equal to 85%
How it was run: as §2

Evaluation of salts = assay type: physicochemical; details: p-toluenesulfonic acid (mono) and H3PO4 (bis) salts
Method: Evaluation of Compound 62 (Table 4) salt formation was performed. […] As stated herein, the invention also includes compounds and their salts. Evaluation of Compound 64 (Table 4) salt formation was performed. HCl (mono and bis), p-TSA (bis), BSA (bis), MSA (bis), H2SO4 (mono), and H3PO4 (mono) provided salts with crystallinity. […] As stated herein, the invention also includes compounds and their salts.

SMILES	combination with colistin at preventing the growth of P. aeruginosa biofilms (FIG. 2) (P. aeruginosa biofilms [1])	B. cepacia (n = 10) inhibitory concentration in the biofilm growth assay (B. cepacia)	growth of the spreading P. aeruginosa biofilm (FIG. 1) (P. aeruginosa biofilms [2]; 0.5 μg/ml in agar, overnight 37° C.)	optimal working concentration (P. aeruginosa biofilms [2]; P. aeruginosa biofilm growth assay (FIG. 2 legend))	IC85 (P. aeruginosa biofilms [2]; overnight 37° C.)	P. aeruginosa (n = 10) inhibitory concentration in the biofilm growth assay (P. aeruginosa biofilms [2]; Table 6, n = 10 isolates)	concentration inhibiting the spreading biofilm of Pectobacterium atrosepticum [3]	Salmonella spp. (n = 6) inhibitory concentration in the biofilm growth assay (Salmonella spp.)	concentration inhibiting the spreading biofilm of Pseudomonas syringae (Pseudomonas syringae)	modulation of cysB and genes under its control (cysB)	concentration inhibiting the spreading biofilm of Xanthomonas campestris (Xanthomonas campestris)	IC85 (E. coli biofilms)	E. coli (n = 10) inhibitory concentration in the biofilm growth assay (E. coli biofilms; Table 6, n = 10 isolates)	physical properties of salts compared to freebase (Evaluation of salts)
CC1(C)CC[C@]2(C(=O)O)CC[C@]3(C)C(=CCC4[C@@]5(C)Cc6c(n[nH]c6N)C(C)(C)[C@@H]5CC[C@]43C)[C@@H]2C1 (stereo partly drawn) [Compound 1, (4aS,6aS,6bR,13aR)-12-Amino-2,2,6a,6b,9,9,13a-heptamethyl-2,3,4,4a,5,6,6a,6b,7,8,8a,9,11,13,13a,13b,14,15b-octadecahydro-1H-chryseno[1,2-f]indazole-4-a-carboxylic acid]	synergistic	0.25	prevented the growth	0.5 µg/mL	0.5 µg/mL (≈ 1.01 µM)	1	0.06 µg/mL	1	0.03 µg/mL	modulates cysB and genes under its control	0.5 µg/mL	1 µg/mL (≈ 2.03 µM)	1	
CC1(C)CC[C@]2(C(N)=O)CC[C@]3(C)C(=CCC4[C@@]5(C)Cc6c(n[nH]c6N)C(C)(C)[C@@H]5CC[C@]43C)[C@@H]2C1 (stereo partly drawn) [Compound 62, (4aS,6aS,6bR,13aR)-12-Amino-2,2,6a,6b,9,9,13a-heptamethyl-2,3,4,4a,5,6,6a,6b,7,8,8a,9,11,13,13a,13b,14,15b-octadecahydro-1H-chryseno[1,2-f]indazole-4-a-carboxamide]					1 µg/mL (≈ 2.03 µM)							1 µg/mL (≈ 2.03 µM)		most desirable physical properties

— patent US8324264B1, “Inhibitors of bacterial biofilms and related methods” (Sequoia Sciences, Inc., priority 2011, dated 2012)
